Reference: patent US20220281821A1, “INDAZOLE COMPOUNDS AND THEIR PHARMACEUTICAL COMPOSITIONS” (Jinan University, priority 2019, published 2022)

How the values were obtained:
Type in all cases: cell-based, mouse
BaF3-ETV6-NTRK3 = target: T1, BaF3-ETV6-NTRK3 (Homo sapiens, UniProt Q16288); assay: Cell proliferation inhibition (CCK-8), BaF3-ETV6-NTRK3 stable strain; settings: BaF3-ETV6-NTRK3, 72 hours
T1 construct: fused on or other part: P41212 (Transcription factor ETV6)
Procedure: (§1) The brief steps of stable strain construction are as follows: construct a pCDNA3.1(+) plasmid vector carrying genes such as CD74-NTRK1, ETV6-NTRK2 and ETV6-NTRK3; the plasmid was electroporated into Ba/F3 cells using the Amaxa® Cell Line Nucleofector® Kit V; 48 hours after electroporated, G418 with a final concentration of 1000 μg/ml was added for screening for two weeks, and then IL3 was removed, and continued screening to obtain polyclonal stable strains; then single clones were selected by a limiting dilution method. The stable strains were then identified using positive drugs, WB and gene sequencing; and the monoclonal clones that were identified as completely correct may be used for the study of cell proliferation inhibitory activity of inhibitors.
(§2) Cell proliferation inhibition activity study: the cells in the logarithmic growth phase were seeded into 96-well plates at 8000-12000 cells/well, and inhibitors at different concentrations (0-10 μM) were added the next day, and incubation was continued for 72 hours; then 10 μL of CCK-8 reagent was added to each well, and the incubation was continued for 1-3 hours; and then use a super microplate reader to measure their absorbance values at 450 nm and 650 nm. The half-inhibition concentration (IC50) was calculated using GraphPad Prism 8.0.0.

BaF3-CD74-NTRK1 = target: T2, BaF3-CD74-NTRK1 (Homo sapiens, UniProt P04629); assay: Cell proliferation inhibition (CCK-8), BaF3-CD74-NTRK1 stable strain; settings: BaF3-CD74-NTRK1, 72 hours
T2 construct: fused on or other part: P04233 (HLA class II histocompatibility antigen gamma chain)
T2 sequence (P04629 510-796 limits assumed): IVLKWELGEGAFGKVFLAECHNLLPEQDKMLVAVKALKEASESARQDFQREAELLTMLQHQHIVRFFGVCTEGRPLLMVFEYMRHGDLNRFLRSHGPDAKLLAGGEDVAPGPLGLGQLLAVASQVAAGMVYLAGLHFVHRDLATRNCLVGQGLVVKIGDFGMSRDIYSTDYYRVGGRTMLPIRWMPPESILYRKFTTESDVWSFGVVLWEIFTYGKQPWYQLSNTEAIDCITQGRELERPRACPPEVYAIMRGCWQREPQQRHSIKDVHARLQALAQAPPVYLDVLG
Procedure: as §1, §2

BaF3-ETV6-NTRK2 = target: T3, BaF3-ETV6-NTRK2 (Homo sapiens, UniProt Q16620); assay: Cell proliferation inhibition (CCK-8), BaF3-ETV6-NTRK2 stable strain; settings: BaF3-ETV6-NTRK2, 72 hours
T3 construct: fused on or other part: P41212 (Transcription factor ETV6)
T3 sequence (Q16620 538-822 limits assumed): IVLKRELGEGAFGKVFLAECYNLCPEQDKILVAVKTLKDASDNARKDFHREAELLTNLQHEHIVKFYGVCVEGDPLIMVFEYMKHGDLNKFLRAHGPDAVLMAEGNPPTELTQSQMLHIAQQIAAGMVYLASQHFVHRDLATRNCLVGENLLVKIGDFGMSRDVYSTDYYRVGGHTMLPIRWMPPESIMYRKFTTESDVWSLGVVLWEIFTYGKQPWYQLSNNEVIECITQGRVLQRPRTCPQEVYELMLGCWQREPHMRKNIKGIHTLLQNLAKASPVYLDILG
Procedure: as §1, §2

T1 sequence (Q16288 whole entry, the tested form may be a part): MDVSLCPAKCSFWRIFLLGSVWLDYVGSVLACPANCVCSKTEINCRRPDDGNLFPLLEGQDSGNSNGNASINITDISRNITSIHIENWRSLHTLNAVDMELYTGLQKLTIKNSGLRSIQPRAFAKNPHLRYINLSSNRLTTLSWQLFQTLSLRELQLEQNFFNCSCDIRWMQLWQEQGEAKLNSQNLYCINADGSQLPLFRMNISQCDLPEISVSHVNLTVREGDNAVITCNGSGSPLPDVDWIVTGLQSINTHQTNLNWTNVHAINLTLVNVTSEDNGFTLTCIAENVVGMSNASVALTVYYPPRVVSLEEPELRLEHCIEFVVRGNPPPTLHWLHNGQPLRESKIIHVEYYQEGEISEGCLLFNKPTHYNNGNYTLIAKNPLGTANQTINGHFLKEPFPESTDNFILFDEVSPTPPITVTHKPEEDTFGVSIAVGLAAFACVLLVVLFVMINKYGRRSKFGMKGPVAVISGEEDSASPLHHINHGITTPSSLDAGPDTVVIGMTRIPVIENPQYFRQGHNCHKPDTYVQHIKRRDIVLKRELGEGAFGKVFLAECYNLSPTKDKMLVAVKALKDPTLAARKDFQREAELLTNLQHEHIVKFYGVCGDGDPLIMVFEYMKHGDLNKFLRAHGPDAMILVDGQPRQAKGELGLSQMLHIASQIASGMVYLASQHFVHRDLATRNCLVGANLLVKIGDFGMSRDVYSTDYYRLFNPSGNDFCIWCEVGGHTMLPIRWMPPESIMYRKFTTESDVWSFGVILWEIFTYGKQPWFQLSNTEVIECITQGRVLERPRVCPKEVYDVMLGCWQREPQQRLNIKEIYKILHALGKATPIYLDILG

Compound | IC50 (BaF3-ETV6-NTRK3) [nM] | IC50 (BaF3-CD74-NTRK1) [nM] | IC50 (BaF3-ETV6-NTRK2) [nM]
CC(=O)n1cc(/C=C/c2n[nH]c3ccc(NS(=O)(=O)c4cc(F)cc(F)c4)cc23)cn1 [CHW-2, (E)-N-(3-(2-(1-acetyl-1H-pyrazol-4-yl)vinyl)-1H-indazol-5-yl)-3,5-difluorobenzenesulfonamide] | 127 | 107 | 185
O=S(=O)(Nc1ccc2[nH]nc(/C=C/c3cnn(CC(F)(F)F)c3)c2c1)c1cc(F)cc(F)c1 [CHW-3] | 123 | 92 | 165
O=S(=O)(Nc1ccc2[nH]nc(/C=C/c3cccnc3)c2c1)c1cc(F)cc(F)c1 [CHW-8, (E)-3,5-difluoro-N-(3-(2-(pyridin-3-yl)vinyl)-1H-indazol-5-yl)benzenesulfonamide] | 174 | 143 | 248
O=S(=O)(Nc1ccc2[nH]nc(/C=C/c3ccccn3)c2c1)c1cncc(F)c1 [CHW-9, (E)-5-fluoro-N-(3-(2-(pyridin-2-yl)vinyl)-1H-indazol-5-yl)pyridine-3-sulfonamide] | 121 | 60.8 | 134
CN(C)C(=O)Cn1cc(/C=C/c2n[nH]c3ccc(NS(=O)(=O)c4cc(F)cc(F)c4)cc23)cn1 [CHW-10, (E)-2-(4-(2-(5-((3,5-difluorophenyl)sulfonamido)-1H-indazol-3-yl)vinyl)-1H-pyrazol-1-yl)-N,N-dimethylacetamide] | 390 | 274 | 439
CNC(=O)Cn1cc(/C=C/c2n[nH]c3ccc(NS(=O)(=O)c4cc(F)cc(F)c4)cc23)cn1 [CHW-14, (E)-2-(4-(2-(5-((3,5-difluorophenyl)sulfonamido)-1H-indazol-3-yl)vinyl)-1H-pyrazol-1-yl)-N-methylacetamide] | 350 | 331 | 427
N#Cc1cccc(Cc2ccc3[nH]nc(C#Cc4ccccn4)c3c2)c1 [DYX-136Q, 3-((3-(pyridin-2-ylethynyl)-1H-indazol-5-yl)methyl)benzonitrile] | 2090 | 4600 | 3100
FC(F)(F)c1cccc(Cc2ccc3[nH]nc(C#Cc4ccccn4)c3c2)c1 [DYX-138Q] | > 10000 | > 10000 | > 10000
CC(C)(C)NC(=O)/C=C/c1n[nH]c2ccc(NCc3cc(F)cc(F)c3)cc12 [DYX-230, (E)-N-tert-butyl-3-(5-((3,5-difluorobenzyl)amino)-1H-indazol-3-yl)acrylamide] | 359 | 682 | 303
CC(C)NC(=O)/C=C/c1n[nH]c2ccc(NCc3cc(F)cc(F)c3)cc12 [DYX-231, (E)-3-(5-((3,5-difluorobenzyl)amino)-1H-indazol-3-yl)-N-isopropylacrylamide] | 547 | 619 | 780
CCNC(=O)/C=C/c1n[nH]c2ccc(NCc3cc(F)cc(F)c3)cc12 [DYX-236, (E)-3-(5-((3,5-difluorobenzyl)amino)-1H-indazol-3-yl)-N-ethylacrylamide] | 196 | 112 | 116
C(=C\c1n[nH]c2ccc(NCc3ccccc3)cc12)/c1ccccn1 [DYX-314, (E)-N-benzyl-3-(2-(pyridin-2-yl)vinyl)-1H-indazol-5-amine] | 149 | 154 | 165

These reach a lower IC50 (BaF3-ETV6-NTRK3). Values come first.

IC50 (BaF3-ETV6-NTRK3) [nM] | IC50 (BaF3-CD74-NTRK1) [nM] | IC50 (BaF3-ETV6-NTRK2) [nM] | Compound
39.2 | 35.5 | 43.1 | N#CCn1cc(/C=C/c2n[nH]c3ccc(NS(=O)(=O)c4cc(F)cc(F)c4)cc23)cn1 [CHW-1, (E)-N-(3-(2-(1-(cyanomethyl)-1H-pyrazol-4-yl)vinyl)-1H-indazol-5-yl)-3,5-difluorobenzene sulfonamide]
7 | 3.1 | 8.2 | O=S(=O)(Nc1ccc2[nH]nc(/C=C/c3cnn(C4CC4)c3)c2c1)c1cc(F)cc(F)c1 [CHW-4]
59.5 | 27.3 | 70.1 | O=S(=O)(Nc1ccc2[nH]nc(/C=C/c3ccccn3)c2c1)c1cccc(F)c1 [CHW-5, (E)-3-fluoro-N-(3-(2-(pyridin-2-yl)vinyl)-1H-indazol-5-yl)benzene sulfonamide]
53.5 | 23 | 60.1 | O=S(=O)(Nc1ccc2[nH]nc(/C=C/c3cnn(CC(F)F)c3)c2c1)c1cc(F)cc(F)c1 [CHW-6]
40.9 | 33.4 | 57.8 | CC(C)n1cc(/C=C/c2n[nH]c3ccc(NS(=O)(=O)c4cc(F)cc(F)c4)cc23)cn1 [CHW-7, (E)-3,5-difluoro-N-(3-(2-(1-isopropyl-1H-pyrazol-4-yl)vinyl)-1H-indazol-5-yl)benzenesulfonamide]
111 | 53.8 | 103 | O=S(=O)(Nc1ccc2[nH]nc(/C=C/c3cnn(C(F)F)c3)c2c1)c1cc(F)cc(F)c1 [CHW-11]
48.1 | 33.8 | 55.8 | CC(C)OCCn1cc(/C=C/c2n[nH]c3ccc(NS(=O)(=O)c4cc(F)cc(F)c4)cc23)cn1 [CHW-12]
41.3 | 40.2 | 52.3 | COCCn1cc(/C=C/c2n[nH]c3ccc(NS(=O)(=O)c4cc(F)cc(F)c4)cc23)cn1 [CHW-13]
22.6 | 21.2 | 31.7 | CN(C)C(=O)/C=C/c1n[nH]c2ccc(NCc3cc(F)cc(F)c3)cc12 [DYX-220, (E)-3-(5-((3,5-difluorobenzyl)amino)-1H-indazol-3-yl)-N,N-dimethylacrylamide]
41.5 | 37.3 | 54.7 | O=C(/C=C/c1n[nH]c2ccc(NCc3cc(F)cc(F)c3)cc12)N1CCOCC1 [DYX-222, (E)-3-(5-((3,5-difluorobenzyl)amino)-1H-indazol-3-yl)-1-morpholinoprop-2-en-1-one]
35.6 | 37.7 | 24.3 | NC(=O)/C=C/c1n[nH]c2ccc(NCc3cc(F)cc(F)c3)cc12 [DYX-223, (E)-3-(5-((3,5-difluorobenzyl)amino)-1H-indazol-3-yl)acrylamide]
34.4 | 48.7 | 48.1 | CN1CCN(C(=O)/C=C/c2n[nH]c3ccc(NCc4cc(F)cc(F)c4)cc23)CC1 [DYX-226, (E)-3-(5-((3,5-difluorobenzyl)amino)-1H-indazol-3-yl)-1-(4-methylpiperazin-1-yl)prop-2-en-1-one]
33.2 | 37.5 | 56 | O=C(/C=C/c1n[nH]c2ccc(NCc3cc(F)cc(F)c3)cc12)N1CC[C@@H](O)C1 [DYX-227, (R,E)-3-(5-((3,5-difluorobenzyl)amino)-1H-indazol-3-yl)-1-(3-hydroxylpyrrolidin-1-yl)prop-2-en-1-one]
11.6 | 11.9 | 20.5 | O=C(/C=C/c1n[nH]c2ccc(NCc3cc(F)cc(F)c3)cc12)N1CC[C@H](O)C1 [DYX-228, (S,E)-3-(5-((3,5-difluorobenzyl)amino)-1H-indazol-3-yl)-1-(3-hydroxylpyrrolidin-1-yl)prop-2-en-1-one]
34.2 | 20 | 32.6 | CNC(=O)/C=C/c1n[nH]c2ccc(NCc3cc(F)cc(F)c3)cc12 [DYX-235, (E)-3-(5-((3,5-difluorobenzyl)amino)-1H-indazol-3-yl)-N-methylacrylamide]
